Data on 13 molecules can be found in patent publication US20110059043A1, “CHEMICAL COMPOUNDS” (priority 2009, published 2011).

Where only a bound is given, the exact number is not on record here.

Data set [1] has as its target T1, Recombinant HCV polymerase (BK strain) (Hepatitis C virus genotype 1b, UniProt P26663).
T1 construct: Recombinant HCV polymerase (BK strain) was expressed and purified from E. coli with a 21 amino acid C-terminal deletion; His6; made in house; host or cells: E. coli
In words: HCV polymerase enzyme assay (radiometric [33P]-UTP incorporation). It counts as biochemical, HCV 1b. The essentials:
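His6-tagged BK-strain NS5B lacking 21 C-terminal residues, expressed in E. coli, at 100 nM in Tris pH 7.5 with 5 mM MgCl2 and 3% DMSO. Substrates: 125 nM biotin-U13:0.63 μg/ml PolyA, 200 nM UTP plus [33P]-UTP; 100 min at 25° C. Incorporation read by streptavidin capture; IC50 from 8-point curve.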

Data set [2] relates to HCV replicon cells Huh 9B. Briefly: HCV replicon assay (luciferase). It is filed as cell-based. Particulars: Hepatitis C virus, reduction of replicon level by 50% vs untreated cell control, 72 h. On the technique in general: A replicon is a self-replicating genome or part of one, used to study replication in cells.
For data set [3], the system named is HCV replicon cells Huh 9B. It is filed as cell-based. Particulars: concentration reducing total cell area by 50% relative to DMSO controls; 72 h. In a few lines:
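Huh 9B replicon cells (luciferase-ubiquitin-neomycin fusion, EMCV-IRES-driven HCV polyprotein with adaptive mutations) were seeded from a 100,000 cells/ml suspension in G418-free medium, grown 24 h, then exposed to compound (dilutions at 1% DMSO) for 72 h at 37 °C. For toxicity, methylene blue staining was read at 620 nm and TD50 derived relative to DMSO controls.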

T1 sequence (P26663 2420-2989): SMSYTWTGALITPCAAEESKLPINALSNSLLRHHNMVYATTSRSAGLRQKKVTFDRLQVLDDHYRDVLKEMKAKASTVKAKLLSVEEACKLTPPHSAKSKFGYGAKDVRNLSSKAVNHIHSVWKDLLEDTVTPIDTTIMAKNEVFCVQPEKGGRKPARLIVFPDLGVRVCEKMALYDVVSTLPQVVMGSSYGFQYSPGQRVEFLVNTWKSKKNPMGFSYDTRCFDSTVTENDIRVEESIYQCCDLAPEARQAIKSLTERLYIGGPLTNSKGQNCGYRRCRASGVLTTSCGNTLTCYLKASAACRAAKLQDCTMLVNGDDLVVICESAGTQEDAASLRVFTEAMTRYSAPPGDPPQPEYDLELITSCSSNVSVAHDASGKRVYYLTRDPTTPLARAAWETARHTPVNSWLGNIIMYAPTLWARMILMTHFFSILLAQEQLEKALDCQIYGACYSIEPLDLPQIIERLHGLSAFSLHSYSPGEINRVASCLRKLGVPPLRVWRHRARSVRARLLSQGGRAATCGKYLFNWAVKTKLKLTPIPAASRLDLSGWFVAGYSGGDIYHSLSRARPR

For orientation: IC50 means the concentration that inhibits the measured activity by half. In the case of `CCOCCOc1ncc(F)cc1C(=O)NC1N=C(c2c(Cl)cc(Cl)cc2OCC)c2ccccc2NC1=O` (stereo not drawn) [Example 58, N-(5-(2,4-Dichloro-6-ethoxyphenyl)-2-oxo-2,3-dihydro-1H-benzo[e][1,4]diazepin-3-yl)-2-(2-ethoxyethoxy)-5-fluoronicotinamide], the IC50 in data set [1] is 69 nM; in data set [2], 9.9 nM. Moreover, the “Replicon Assay Value TD50” value in data set [3] was found to be 11.875 µM.

As for `COCCOc1ccc(Cl)cc1C(=O)N[C@H]1N=C(c2c(Cl)cc(Cl)cc2Cl)c2ccccc2NC1=O` [Example 59, (S)-5-Chloro-2-(2-methoxyethoxy)-N-(2-oxo-5-(2,4,6-trichlorophenyl)-2,3-dihydro-1H-benzo[e][1,4]diazepin-3-yl)benzamide], the IC50 in data set [1] came out at 87.6 nM; in data set [2], 45.3 nM. In addition, the “Replicon Assay Value TD50” value in data set [3] is greater than 25 µM.

Regarding `COCCOc1ccc(Cl)cc1C(=O)N[C@@H]1N=C(c2c(Cl)cc(Cl)cc2Cl)c2ccccc2NC1=O` [Example 60, (R)-5-Chloro-2-(2-methoxyethoxy)-N-(2-oxo-5-(2,4,6-trichlorophenyl)-2,3-dihydro-1H-benzo[e][1,4]diazepin-3-yl)benzamide], the values for the IC50 in data set [1] and in data set [2] were 27700 nM and 798 nM, respectively. Moreover, the “Replicon Assay Value TD50” value in data set [3] was greater than 25 µM.

On to `COCCOc1ccc(F)cc1C(=O)N[C@H]1N=C(c2c(Cl)cc(Cl)cc2Cl)c2ccccc2NC1=O` [Example 61, (S)-5-Fluoro-2-(2-methoxyethoxy)-N-(2-oxo-5-(2,4,6-trichlorophenyl)-2,3-dihydro-1H-benzo[e][1,4]diazepin-3-yl)benzamide], for which the IC50 in data set [1] turned out to be 44.4 nM; in data set [2], 16.7 nM. Moreover, the “Replicon Assay Value TD50” value in data set [3] was found to be 17.347 µM.

Regarding `COCCOc1ccc(F)cc1C(=O)N[C@@H]1N=C(c2c(Cl)cc(Cl)cc2Cl)c2ccccc2NC1=O` [Example 62, (R)-5-Fluoro-2-(2-methoxyethoxy)-N-(2-oxo-5-(2,4,6-trichlorophenyl)-2,3-dihydro-1H-benzo[e][1,4]diazepin-3-yl)benzamide], the IC50 in data set [1] stood at 16800 nM; in data set [2], 594 nM. Besides, the “Replicon Assay Value TD50” value in data set [3] is 24.765 µM.

Turning to `COCCOc1ncc(F)cc1C(=O)N[C@H]1N=C(c2c(Cl)cc(Cl)cc2Cl)c2ccccc2NC1=O` [Example 63, (S)-5-Fluoro-2-(2-methoxyethoxy)-N-(2-oxo-5-(2,4,6-trichlorophenyl)-2,3-dihydro-1H-benzo[e][1,4]diazepin-3-yl)nicotinamide], the concentration for half-maximal inhibition (IC50) came out at 50.5 nM in data set [1] and 9.7 nM in data set [2]. For the same molecule, the “Replicon Assay Value TD50” value in data set [3] was determined as 17.386 µM.

For the molecule `COCCOc1ncc(F)cc1C(=O)N[C@@H]1N=C(c2c(Cl)cc(Cl)cc2Cl)c2ccccc2NC1=O` [Example 64, (R)-5-Fluoro-2-(2-methoxyethoxy)-N-(2-oxo-5-(2,4,6-trichlorophenyl)-2,3-dihydro-1H-benzo[e][1,4]diazepin-3-yl)nicotinamide], the IC50 in data set [1] worked out at 2070 nM; in data set [2], 241 nM. Moreover, in data set [3], the “Replicon Assay Value TD50” value was found to be 23.452 µM.

For the molecule `CCOCCOc1ncc(F)cc1C(=O)N[C@H]1N=C(c2c(Cl)cc(Cl)cc2Cl)c2ccccc2NC1=O` [Example 65, (S)-2-(2-Ethoxyethoxy)-5-fluoro-N-(2-oxo-5-(2,4,6-trichlorophenyl)-2,3-dihydro-1H-benzo[e][1,4]diazepin-3-yl)nicotinamide], the IC50 in data set [1] turned out to be 32.3 nM; in data set [2], 4.8 nM. In addition, the “Replicon Assay Value TD50” value in data set [3] was determined as 10.854 µM.

For `CCOCCOc1ncc(F)cc1C(=O)N[C@@H]1N=C(c2c(Cl)cc(Cl)cc2Cl)c2ccccc2NC1=O` [Example 66, (R)-2-(2-Ethoxyethoxy)-5-fluoro-N-(2-oxo-5-(2,4,6-trichlorophenyl)-2,3-dihydro-1H-benzo[e][1,4]diazepin-3-yl)nicotinamide], the IC50 turned out to be 2220 nM in data set [1] and 163 nM in data set [2]. Besides, in data set [3], the “Replicon Assay Value TD50” value came out at 16.686 µM.

`COCCN(C)c1ncc(F)cc1C(=O)N[C@H]1N=C(c2c(Cl)cc(Cl)cc2Cl)c2ccccc2NC1=O` [Example 67, (S)-5-Fluoro-2-((2-methoxyethyl)(methyl)amino)-N-(2-oxo-5-(2,4,6-trichlorophenyl)-2,3-dihydro-1H-benzo[e][1,4]diazepin-3-yl)nicotinamide]: the values for the IC50 in data set [1] and in data set [2] were 36.3 nM and 11.2 nM, respectively. The “Replicon Assay Value TD50” value in data set [3] worked out at 13.07 µM.

`COCCN(C)c1ncc(F)cc1C(=O)N[C@@H]1N=C(c2c(Cl)cc(Cl)cc2Cl)c2ccccc2NC1=O` [Example 68, (R)-5-Fluoro-2-((2-methoxyethyl)(methyl)amino)-N-(2-oxo-5-(2,4,6-trichlorophenyl)-2,3-dihydro-1H-benzo[e][1,4]diazepin-3-yl)nicotinamide]: the IC50 was found to be 5170 nM in data set [1] and 360 nM in data set [2]. Besides, the “Replicon Assay Value TD50” value in data set [3] came to 16.618 µM.

As for `CCOc1cc(Cl)cc(Cl)c1C1=N[C@H](NC(=O)c2cc(F)ccc2OCCOC)C(=O)Nc2ccccc21` [Example 69, (S)—N-(5-(2,4-Dichloro-6-ethoxyphenyl)-2-oxo-2,3-dihydro-1H-benzo[e][1,4]diazepin-3-yl)-5-fluoro-2-(2-methoxyethoxy)benzamide], the half-maximal inhibitory concentration (IC50) in data set [1] came to 79.2 nM; in data set [2] it was 31.3 nM. Moreover, the “Replicon Assay Value TD50” value in data set [3] worked out at 17.731 µM.

As to `CCOc1cc(Cl)cc(Cl)c1C1=N[C@@H](NC(=O)c2cc(F)ccc2OCCOC)C(=O)Nc2ccccc21` [Example 70, (R)—N-(5-(2,4-Dichloro-6-ethoxyphenyl)-2-oxo-2,3-dihydro-1H-benzo[e][1,4]diazepin-3-yl)-5-fluoro-2-(2-methoxyethoxy)benzamide], the IC50 in data set [1] was 5360 nM; in data set [2], 737 nM. Also, in data set [3], the “Replicon Assay Value TD50” value was found to be 24.592 µM.
